In patent EP1448559B1, “5-(4-(2-(N-METHYL-N-(2-PYRIDYL)AMINO)ETHOXY)BENZYL)THIAZOLIDINE-2,4-DIONE BENZENESULFONATE; PROCESS FOR ITS PREPARATION; POLYMORPHS I, II AND III THEREOF; AND ITS USE AS PHARMACEUTICAL ACTIVE INGREDIENT” (SMITHKLINE BEECHAM PLC, priority 2001, dated 2003):

Assay: Solubility in water (visual, confirmed by HPLC assay of a saturated solution)

Compound	solubility (water added in aliquots from 1 to 1000ml to approximately 100mg of drug substance, confirmed by HPLC assay of a saturated solution) [µg/mL]	solubility (water) [µg/mL]
CN(CCOc1ccc(CC2SC(=O)NC2=O)cc1)c1ccccn1 (centres unmarked) [Benzenesulfonate Form II, 5-[4-[2-(N-Methyl-N-(2-pyridyl)amino)ethoxy]benzyl]thiazolidine-2,4-dione benzenesulfonate Form II]	1400	–
CN(CCOc1ccc(CC2SC(=O)NC2=O)cc1)c1ccccn1 (centres unmarked) [Benzenesulfonate propan-2-ol solvate, 5-[4-[2-(N-Methyl-N-(2-pyridyl)amino)ethoxy]benzyl]thiazolidine-2,4-dione benzenesulfonate propan-2-ol solvate]	–	1600
